Laboratory results reported in US20120220590A1, “NOVEL COMPOUNDS AS MODULATORS OF GLUCOCORTICOID RECEPTORS” (priority 2009, published 2012).

Legend:
[1] = tested on: LPS-induced IL-6 secretion in U 937 cells; assay: Modulation of proinflammatory cytokine production in U 937 cells (transrepression): IL-6; assay type: cell-based; settings: Homo sapiens, U 937 cells stimulated with 5 μg/mL LPS, ELISA; for inhibition at 0.1 µM: 0.1 μM test compound; for inhibition at 1 µM: 1 μM test compound
Description: (§1) VI) Modulation of Proinflammatory Cytokine Production in U 937 Cells (Determination of Transrepression)
(§2) Testing of compounds in GR-mediated inhibition of LPS-induced TNFα, IL-1β, and IL-6 secretion in U 937 cells.
(§3) Differentiated U 937 cells are incubated for 2 days in RPMI1640 medium containing 10% CCS (charcoal treated calf serum). The cells are transferred to 96 well plates and stimulated with 5 μg/mL LPS (dissolved in PBS) in the presence or absence of dexamethasone or test compound (dissolved in DMSO, final concentration 0.2%). Control cells are treated with 0.2% DMSO. After required incubation periods, proinflammatory cytokine(s) concentrations in the cell supernatant are measured by ELISA, using the “BD OptEIA™ Set human TNF, BD OptEIA™ Set human IL-6, BD OptEIA™ Set human IL-1β.
(§4) TNF α inhibition induced by Dexamethasone at 10 nM concentration was considered as 100% and % inhibition of the test NCE was determined as compared to Dexamethasone. Dose-response curves are calculated by fitting to a non-linear 4-parameter logistic model, and absolute EC50 (or IC50) values for the determination of dissociation are derived from these curves and the corresponding curve for dexamethasone on the same experimental occasion.

[2] = tested on: LPS-induced TNFα secretion in U 937 cells; assay: Modulation of proinflammatory cytokine production in U 937 cells (transrepression): TNFα; assay type: cell-based; settings: Homo sapiens, U 937 cells stimulated with 5 μg/mL LPS, inhibition by Dexamethasone at 10 nM considered as 100%, read-out: % TNF α Inhibition; for inhibition at 0.1 µM: 0.1 μM test compound; for inhibition at 1 µM: 1 μM test compound
Description: as §1, §2, §3, §4

SMILES	inhibition at 0.1 µM [1]	inhibition at 1 µM [1]	inhibition at 0.1 µM [2]	inhibition at 1 µM [2]
CCS(=O)(=O)Nc1cccc(N(Cc2ccc(Oc3cccc(OCC4CCOC4)c3)cc2)Cc2cccc(C#N)c2)c1C (centres unmarked) [Example 16, N-(3-((3-cyanobenzyl)(4-(3-((tetrahydrofuran-3-yl)methoxy)phenoxy)benzyl)amino)-2-methylphenyl)ethanesulfonamide]	62%	81%	63.2%	87.4%
CCS(=O)(=O)Nc1cccc(N(Cc2ccc(C#N)cc2)Cc2ccc(Oc3cccc(OCc4ccoc4)c3)cc2)c1C [Example 20, N-(3-((4-cyanobenzyl)(4-(3-(furan-3-ylmethoxy)phenoxy)benzyl)amino)-2-methylphenyl)ethanesulfonamide]	92.2%	97.9%	88.9%	93.6%
Cc1c(NS(C)(=O)=O)cccc1N(Cc1ccc(C#N)cc1)Cc1ccc(Oc2cccc(OCCc3cccs3)c2)cc1 [Example 35, N-(3-((4-cyanobenzyl)(4-(3-(2-(thiophen-2-yl)ethoxy)phenoxy)benzyl)amino)-2-methylphenyl)methanesulfonamide]	28%	54%	41.8%	83.4%
Cc1c(NS(C)(=O)=O)cccc1N(Cc1ccc(Oc2cccc(OCC3CCOC3)c2)cc1)Cc1cccc(C#N)c1 (centres unmarked) [Example 55, N-(3-((3-cyanobenzyl)(4-(3-((tetrahydrofuran-3-yl)methoxy)phenoxy)benzyl)amino)-2-methylphenyl)methanesulfonamide]	55%	76%	1.54%	-1.12%
Cc1c(NS(C)(=O)=O)cccc1N(Cc1ccc(C#N)cc1)Cc1ccc(Oc2cccc(OCC3CCOC3)c2)cc1 (centres unmarked) [Example 58, N-(3-((4-cyanobenzyl)(4-(3-((tetrahydrofuran-3-yl)methoxy)phenoxy)benzyl)amino)-2-methylphenyl)methanesulfonamide]	45%	76%	13.1%	55%
CCS(=O)(=O)Nc1cccc(N(Cc2ccc(Oc3cccc(OCCc4cccnc4)c3)cc2)Cc2cccc(C#N)c2)c1C [Example 60, N-(3-((3-cyanobenzyl)(4-(3-(2-(pyridin-3-yl)ethoxy)phenoxy)benzyl)amino)-2-methylphenyl)ethanesulfonamide]	90%	91.7%	95.1%	96.3%
Cc1c(NS(C)(=O)=O)cccc1N(Cc1ccc(Oc2cccc(OCCc3cccnc3)c2)cc1)Cc1cccc(C#N)c1 [Example 62, N-(3-((3-cyanobenzyl)(4-(3-(2-(pyridin-3-yl)ethoxy)phenoxy)benzyl)amino)-2-methylphenyl)methanesulfonamide]	68.4%	90.8%	52.6%	83.7%
CNC(=O)c1cc(OCCc2cccnc2)cc(Oc2ccc(CN(Cc3ccc(C#N)cc3)c3cccc(NS(C)(=O)=O)c3C)cc2)c1 [Example 74, 3-(4-(((4-cyanobenzyl)(2-methyl-3-(methylsulfonamido)phenyl)amino)methyl)phenoxy)-N-methyl-5-(2-(pyridin-3-yl)ethoxy)benzamide]	100%	100%	90.4%	100%
Cc1c(NS(C)(=O)=O)cccc1N(Cc1ccc(C#N)cc1)Cc1ccc(Oc2cc(OCCc3cccnc3)cc(C(N)=O)c2)cc1 [Example 75, 3-(4-(((4-cyanobenzyl)(2-methyl-3-(methylsulfonamido)phenyl)amino)methyl)phenoxy)-5-(2-(pyridin-3-yl)ethoxy)benzamide]	98.2%	100%	75.3%	100%
Cc1c(NS(C)(=O)=O)cccc1N(Cc1ccc(C#N)cc1)Cc1ccc(Oc2cc(CO)cc(OCCc3cccnc3)c2)cc1 [Example 76, N-(3-((4-cyanobenzyl)(4-(3-(hydroxymethyl)-5-(2-(pyridin-3-yl)ethoxy)phenoxy)benzyl)amino)-2-methylphenyl)methanesulfonamide]	85.7%	88.8%	87.6%	86.2%
Cc1c(NS(C)(=O)=O)cccc1N(Cc1ccccc1)Cc1ccc(Oc2cccc(OCCc3cccnc3)c2)cc1 [Example 78, N-(3-(benzyl(4-(3-(2-(pyridin-3-yl)ethoxy)phenoxy)benzyl)amino)-2-methylphenyl)methanesulfonamide]	62%	74%	67.9%	83.9%
Cc1c(NS(C)(=O)=O)cccc1N(Cc1ccc(C#N)cc1)Cc1ccc(Oc2cc(CO)cc(OCc3cccnc3)c2)cc1 [Example 79, N-(3-((4-cyanobenzyl)(4-(3-(hydroxymethyl)-5-(pyridin-3-ylmethoxy)phenoxy)benzyl)amino)-2-methylphenyl)methanesulfonamide]	97%	97%	87.7%	88.2%
Cc1c(NS(C)(=O)=O)cccc1N(Cc1ccc(Oc2cc(CO)cc(OCC3CCOC3)c2)cc1)Cc1cccc(C#N)c1 (centres unmarked) [Example 80, N-(3-((3-cyanobenzyl)(4-(3-(hydroxymethyl)-5-((tetrahydrofuran-3-yl)methoxy)phenoxy)benzyl)amino)-2-methylphenyl)methanesulfonamide]	–	–	84.1%	86.5%
Cc1c(NS(C)(=O)=O)cccc1N(Cc1ccc(C#N)cc1)Cc1ccc(Oc2cc(CO)cc(OCC3CCOC3)c2)cc1 (centres unmarked) [Example 81, N-(3-((4-cyanobenzyl)(4-(3-(hydroxymethyl)-5-((tetrahydrofuran-3-yl)methoxy)phenoxy)benzyl)amino)-2-methylphenyl)methanesulfonamide]	–	–	88.9%	88.2%
Cc1c(NS(C)(=O)=O)cccc1N(Cc1ccc(C#N)cc1)Cc1ccc(Oc2cc(C#N)cc(OCC3CCOC3)c2)cc1 (centres unmarked) [Example 82, N-(3-((4-(3-cyano-5-((tetrahydrofuran-3-yl)methoxy)phenoxy)benzyl)(4-cyanobenzyl)amino)-2-methylphenyl)methanesulfonamide]	60%	83%	50%	71.1%
Cc1c(NS(C)(=O)=O)cccc1N(Cc1ccc(Oc2cc(OCCc3cccnc3)cc(C(N)=O)c2)cc1)Cc1ccc(C#N)c(F)c1 [Example 83, 3-(4-(((4-cyano-3-fluorobenzyl)(2-methyl-3-(methylsulfonamido)phenyl)amino)methyl)phenoxy)-5-(2-(pyridin-3-yl)ethoxy)benzamide]	95.7%	95.1%	93.4%	94.5%
Cc1c(NS(C)(=O)=O)cccc1N(Cc1ccc(C#N)cc1)Cc1ccc(Oc2cc(C#N)cc(OCCc3cccnc3)c2)cc1 [Example 84, N-(3-((4-(3-cyano-5-(2-(pyridin-3-yl)ethoxy)phenoxy)benzyl)(4-cyanobenzyl)amino)-2-methylphenyl)methanesulfonamide]	95%	94.9%	94.6%	93.7%
CCS(=O)(=O)Nc1cccc(N(Cc2ccc(C#N)cc2)Cc2ccc(Oc3cc(CO)cc(OCc4cccnc4)c3)cc2)c1C [Example 85, N-(3-((4-cyanobenzyl)(4-(3-(hydroxymethyl)-5-(pyridin-3-ylmethoxy)phenoxy)benzyl)amino)-2-methylphenyl)ethanesulfonamide]	–	–	88.5%	91.2%
CCS(=O)(=O)Nc1cccc(N(Cc2ccc(Oc3cc(CO)cc(OCC4CCOC4)c3)cc2)Cc2cccc(C#N)c2)c1C (centres unmarked) [Example 86, N-(3-((3-cyanobenzyl)(4-(3-(hydroxymethyl)-5-((tetrahydrofuran-3-yl)methoxy)phenoxy)benzyl)amino)-2-methylphenyl)ethanesulfonamide]	–	–	95.5%	95.6%
